Results: BindingDB's records for doi:10.1021/jm030030n (Virginia Commonwealth University, 2003)

Legend:
[1] = Binding affinity for rodent 5-hydroxytryptamine 5A receptor
[2] = Binding affinity of compound towards rodent 5-hydroxytryptamine 7 receptor

Structure (SMILES) | Ki [1] | Ki [2]
CCN(CC)C(=O)[C@@H]1C=C2c3cccc4[nH]c(Br)c(c34)C[C@H]2N(C)C1 [LSD,2-Bromo] | < 0.01 µM | 
Oc1ccc2cccc(N3CCNCC3)c2c1 [8-Piperazin-1-yl-naphthalen-2-ol] | 0.003 µM | 
CCN(CC)C(=O)[C@@H]1C=C2c3cccc4[nH]c(I)c(c34)C[C@H]2N(C)C1 | < 0.01 µM | 
CCCCC(=O)c1ccc(F)cc1 [1-(4-Fluoro-phenyl)-pentan-1-one] |  | 0.14 µM
